Here are results for 27 molecules from patent publication US6479531B1, “Gastrin and cholecystokinin receptor ligands” (James Black Foundation Limited, priority 1998, dated 2002).

In this test the target is T1, gastrin receptor (Rattus norvegicus, UniProt P30553).
T1 construct: The stomach was excised and flushed with ca. 1 ml of unbuffered physiological saline solution; from tissue; host or cells: isolated whole stomach of immature rats (ca. 21 days old)
T1 sequence (P30553 1-452): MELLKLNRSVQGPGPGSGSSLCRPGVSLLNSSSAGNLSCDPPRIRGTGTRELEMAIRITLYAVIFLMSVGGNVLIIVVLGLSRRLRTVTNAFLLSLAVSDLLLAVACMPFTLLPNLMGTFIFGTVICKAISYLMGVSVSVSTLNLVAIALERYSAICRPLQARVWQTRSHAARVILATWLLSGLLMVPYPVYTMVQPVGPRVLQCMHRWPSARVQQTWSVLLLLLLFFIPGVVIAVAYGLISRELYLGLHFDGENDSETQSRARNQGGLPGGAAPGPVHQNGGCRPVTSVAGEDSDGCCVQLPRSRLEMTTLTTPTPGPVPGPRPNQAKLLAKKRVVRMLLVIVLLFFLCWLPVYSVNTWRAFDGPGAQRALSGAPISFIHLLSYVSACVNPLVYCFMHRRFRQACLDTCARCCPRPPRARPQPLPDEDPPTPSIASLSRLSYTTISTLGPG
The test can be described thus: gastrin antagonist activity in immature rat stomach assay (pentagastrin dose-response, acid secretion). Particulars: isolated immature rat stomach, cumulative pentagastrin dose-response curves; for Kb: read-out: Gastrin pKb (converted). How it is done:
The compounds of the examples were also tested for gastrin antagonist activity in an immature rat stomach assay. The procedure was as follows:
The oesophagus of immature rats (33-50 g, ca. 21 days old) was ligated at the level of the cardiac sphincter and the duodenal sphincter was cannulated. The stomach was excised and flushed with ca. 1 ml of unbuffered physiological saline solution. The fundus was punctured and cannulated. A further 4-5 ml of unbuffered solution was flushed through the stomach to ensure the preparation was not leaking. The stomach was lowered into a jacketed organ bath containing 40 ml of buffered solution containing 3×10^−8 M 5-methylfurmethide, maintained at 37° and gassed vigorously with 95% O2/5% CO2. The stomach was continuously perfused at a rate of 1 ml min^−1 with unbuffered solution gassed with 100% O2 with the perfusate passing over an internally referenced pH-electrode fixed 12 cm above the stomach.
After 120 min of stabilisation the drugs were added directly to the serosal solution in the organ bath and after a further 60 min cumulative pentagastrin dose-response curves were started. Changes in acid secretion were monitored and the curves analysed according to Black et al., Br. J. Pharmacol., 1985, 86, 581.

Counter-ions that a name gives are not always drawn.

For the molecule `Cc1ccccc1-c1nc(CCc2cccc(C(=O)O)c2)c(CCC23CC4CC(CC(C4)C2)C3)[nH]1` [Example 280, 3-{2-[5-(2-Adamantan-1-yl-ethyl)-2-o-tolyl-1H-imidazol-4-yl]-ethyl}-benzoic Acid], the Kb is 1820 nM.

Turning to `Cc1cc(C)c(-c2nc(C(=O)Nc3ccc(C)c(C(=O)O)c3)c(CCC34CC5CC(CC(C5)C3)C4)[nH]2)c(C)n1` [Example 183, 5-{[5-(2-Adamantan-1-yl-ethyl)-2-(2,4,6-trimethyl-pyridine-3-yl)-1H-imidazole-4-carbonyl]-amino}-2-methyl-benzoic Acid], the Kb was 42.7 nM.

Consider `Cc1ccc(NC(=O)c2nc(C3CCCCCC3)[nH]c2COC23CC4CC(CC(C4)C2)C3)cc1C(=O)O` [Example 296, 5-{[5-(Adamantan-1-yloxymethyl)-2-cycloheptyl-1H-imidazole-4-carbonyl]-amino}-2-methyl-benzoic Acid], for which the Kb was 2.09 nM.

As to `CN1CCCCC1c1nc(C(=O)Nc2cccc(C(=O)O)c2)c(CCC23CC4CC(CC(C4)C2)C3)[nH]1` (racemic) [Example 139, (±)-3-{[5-(2-Adamantan-1-yl-ethyl)-2-(1-methyl-piperidin-2-yl)-1H-imidazole-4-carbonyl]-amino}-benzoic Acid], the Kb is 15.8 nM.

In the case of `Cc1cc(C)c(-c2nc(C(=O)Nc3cccc(C(=O)O)c3)c(CCC34CC5CC(CC(C5)C3)C4)[nH]2)c(C)n1` [Example 182, 3-{[5-(2-Adamantan-1-yl-ethyl)-2-(2,4,6-trimethyl-pyridine-3-yl)-1H-imidazole-4-carbonyl]-amino}-benzoic Acid], the Kb is 51.3 nM.

Consider `C[C@@H](NC(=O)c1cccc(NC(=O)c2nc(C3CCCCC3)[nH]c2CCC23CC4CC(CC(C4)C2)C3)c1)C(=O)O` [Example 273, (R)-2-(3-{[5-(2-Adamantan-1-yl-ethyl)-2-cyclohexyl-1H-imidazole-4-carbonyl]-amino}-benzoylamino)-propionic Acid], for which the Kb is 49 nM.

Regarding `O=C(O)c1cccc(NC(=O)c2nc(C3CCOCC3)[nH]c2COC23CC4CC(CC(C4)C2)C3)c1` [Example 233, 3-{[5-(Adamantan-1-yloxymethyl)-2-(tetrahydro-pyran-4-yl)-1H-imidazole-4-carbonyl]-amino}-benzoic Acid], the Kb is 70.8 nM.

For `O=C(O)c1cc(NC(=O)c2nc(C34CCC(CC3)CC4)[nH]c2COC23CC4CC(CC(C4)C2)C3)ccc1F` [Example 223, 5-{[5-(Adamantan-1-yloxymethyl)-2-bicyclo[2.2.2]oct-1-yl-1H-imidazole-4-carbonyl]-amino}-2-fluoro-benzoic Acid], the Kb was 0.776 nM.

On to `CCOC(=O)Cn1c(-c2ccccc2C)nc(C(=O)Nc2cccc(C(=O)O)c2)c1CCC12CC3CC(CC(C3)C1)C2` [Example 250, 3-{[5-(2-Adamantan-1-yl-ethyl)-1-ethoxycarbonylmethyl-2-o-tolyl-1H-imidazole-4-carbonyl]-amino}-benzoic Acid], for which the Kb is 186 nM.

With `O=C(O)c1cccc(NC(=O)c2nc(C3C4CCCC3CCC4)[nH]c2CCC23CC4CC(CC(C4)C2)C3)c1` (stereo not drawn) [Example 208, 3-([5-(2-Adamantan-1-yl-ethyl)-2-bicyclo[3.3.1]non-9-yl-1H-imidazole-4-carbonyl]-amino}-benzoic Acid], the Kb is 3.47 nM.

Take `O=C(O)c1cccc(NC(=O)c2nc(-c3c(Cl)cccc3Cl)[nH]c2COC23CC4CC(CC(C4)C2)C3)c1` [Example 311, 3-{[5-(Adamantan-1-yloxymethyl)-2-(2,6-dichloro-phenyl)-1H-imidazole-4-carbonyl]-amino}-benzoic Acid]: the Kb is 8.71 nM.

With `O=C(O)c1cc(NC(=O)c2nc(C3CCCCC3)[nH]c2COC23CC4CC(CC(C4)C2)C3)ccc1F` [Example 299, 5-{[5-(Adamantan-1-yloxymethyl)-2-cyclohexyl-1H-imidazole-4-carbonyl]-amino}-2-fluoro-benzoic Acid], the Kb was 20.4 nM.

`O=C(Cc1cccc(NC(=O)c2nc(C3CCCCC3)[nH]c2COC23CC4CC(CC(C4)C2)C3)c1)NO` [Example 287, 5-(Adamantan-1-yloxymethyl)-2-cyclohexyl-1H-imidazole-4-carboxylic Acid (3-hydroxycarbamoylmethyl-phenyl)-amide]: the Kb is 91.2 nM.

On to `Cc1ccc(NC(=O)c2nc([C@@H]3CC4C=C[C@H]3C4)[nH]c2COC23CC4CC(CC(C4)C2)C3)cc1C(=O)O` [Example 290, endo-5-{[5-(Adamantan-1-yloxymethyl)-2-((1R,2R)-bicyclo[2.2.1]hept-5-en-2-yl)-1H-imidazole-4-carbonyl]-amino}-2-methyl-benzoic Acid], for which the “Gastrin pKb” value is 8.55.

As to `O=C(O)CCc1cccc(NC(=O)c2nc(C3CCCCC3)[nH]c2CCC23CC4CC(CC(C4)C2)C3)c1` [Example 258, 3-(3-{[5-(2-Adamantan-1-yl-ethyl)-2-cyclohexyl-1H-imidazole-4-carbonyl]-amino}-phenyl)-propionic Acid Trifluoroacetic Acid Salt], the Kb was 204 nM.

As to `O=C(O)CNC(=O)c1cccc(NC(=O)c2nc(C3CCCCC3)[nH]c2CCC23CC4CC(CC(C4)C2)C3)c1` [Example 263, (3-{[5-(2-Adamantan-1-yl-ethyl)-2-cyclohexyl-1H-imidazole-4-carbonyl]-amino}-benzoylamino)-acetic Acid], the Kb is 75.9 nM.

For `O=C(O)c1cccc(NC(=O)c2nc(C3CCCCCCC3)[nH]c2COC23CC4CC(CC(C4)C2)C3)c1` [Example 297, 3-{[5-(Adamantan-1-yloxymethyl)-2-cyclooctyl-1H-imidazole-4-carbonyl]-amino}-benzoic Acid], the Kb was 0.851 nM.

Take `CN(CC(=O)O)C(=O)c1cccc(NC(=O)c2nc(C3CCCCC3)[nH]c2CCC23CC4CC(CC(C4)C2)C3)c1` [Example 266, [(3-{[5-(2-Adamantan-1-yl-ethyl)-2-cyclohexyl-1H-imidazole-4-carbonyl]-amino}-benzoyl)-methyl-amino]-acetic Acid]: the Kb is 19.1 nM.

Turning to `O=C(O)c1cccc(NC(=O)c2nc(C3C4CCC3CC4)[nH]c2COC23CC4CC(CC(C4)C2)C3)c1` (stereo not drawn) [Example 232, 3-{[5-(Adamantan-1-yloxymethyl)-2-bicyclo[2.2.1]hept-7-yl-1H-imidazole-4-carbonyl]-amino}-benzoic Acid], the Kb was 1.38 nM.

For “(±)-3-{[5-(2-Adamantan-1-yl-ethyl)-2-[1-(2-methyl-propyl)-piperidin-2-yl])-1H-imidazole-4-carbonyl]-amino}-benzoic Acid [Example 140]”, the “Gastrin pKb” value is listed as 7.54.

In the case of `Cc1cc(C)c(-c2nc(C(=O)Nc3cccc(CC(=O)O)c3)c(COC34CC5CC(CC(C5)C3)C4)[nH]2)c(C)c1` [Example 227, (3-{[5-(Adamantan-1-yloxymethyl)-2-(2,4,6-trimethyl-phenyl)-1H-imidazole-4-carbonyl]-amino}-phenyl)-acetic Acid], the Kb was 52.5 nM.

Regarding `COCC1(c2nc(C(=O)Nc3cccc(C(=O)O)c3)c(CCC34CC5CC(CC(C5)C3)C4)[nH]2)CCCCC1` [Example 203, 3-{[5-(2-Adamantan-1-yl-ethyl)-2-(1-methoxymethyl-cyclohexyl)-1H-imidazole-4-carbonyl]-amino}-benzoic Acid], the Kb is 11.7 nM.

With `O=C(O)c1cccc(NC(=O)c2nc(C3(CO)CCCCC3)[nH]c2CCC23CC4CC(CC(C4)C2)C3)c1` [Example 204, 3-{[5-(2-Adamantan-1-yl-ethyl)-2-(1-hydroxymethyl-cyclohexyl)-1H-imidazole-4-carbonyl]-amino}-benzoic Acid], the Kb is 5.75 nM.

With `O=C(O)CNS(=O)(=O)c1cccc(NC(=O)c2nc(C3CCCCC3)[nH]c2CCC23CC4CC(CC(C4)C2)C3)c1` [Example 262, (3-{[5-(2-Adamantan-1-yl-ethyl)-2-cyclohexyl-1H-imidazole-4-carbonyl]-amino}-benzenesulfonylamino)-acetic Acid], the Kb was 224 nM.

Turning to `Cc1ccccc1-c1nc(CCC23CC4CC(CC(C4)C2)C3)c(CCc2cccc(C(=O)O)c2)n1C` [Example 277, 3-{2-[5-(2-Adamantan-1-yl-ethyl)-3-methyl-2-o-tolyl-3H-imidazol-4-yl]-ethyl}-benzoic Acid], the Kb was 1000 nM.

On to `Cc1cc(C)c(-c2nc(COC34CC5CC(CC(C5)C3)C4)c(C(=O)Nc3cccc(C(=O)O)c3)n2O)c(C)c1` [Example 312, 3-{[5-(Adamantan-1-yloxymethyl)-2-(2,4,6-trimethyl-phenyl)-3-hydroxy-3H-imidazole-4-carbonyl]-amino}-benzoic Acid], for which the Kb is 34.7 nM.

`Cc1ccccc1-c1nc(CCc2cccc(C(=O)O)c2)c(CCC23CC4CC(CC(C4)C2)C3)n1C` [Example 278, 3-{2-[5-(2-Adamantan-1-yl-ethyl)-1-methyl-2-o-tolyl-1H-imidazol-4-yl]-ethyl}-benzoic Acid]: the Kb was 64.6 nM.
